Reference: patent US20070254313A1, “Gnal Splice Variant and Uses Thereof” (AstraZeneca AB, priority 2003, published 2007)

Biological target: T1, human adenosine A2a receptor (Homo sapiens, UniProt P29274)
T1 construct: β1 and γ2 baculoviruses from PerkinElmer Biosignal; host or cells: Sf9 insect cells infected with recombinant baculoviruses; membranes
Assay: Agonist-induced [35S]-GTPγS binding assay on A2a receptor, Sf9 membranes
Assay type: biochemical
Settings: Sf9 cells expressing adenosine A2a receptor, XLGolf, and β1γ2 dimer
Experimental: After infection for 48 hours, cells were harvested for membrane preparation. Cells were harvested by centrifugation at 500×g at 4° C. The cell pellets were washed twice with Dulbecco's phosphate-buffered saline (DPBS) at pH 7.4 and suspended in ice-cold 10 mM Tris-HCl with 5 mM EDTA (TE)(pH 7.4) containing a protease inhibitor cocktail (Roche Applied Science, Indianapolis, Ind.) and sonicated. Following centrifugation at 1000×g, membranes were collected from the supernatant by centrifugation at 20,000×g for 30 min at 4° C. The membrane fraction was stored at −80° C. in TE containing 5% glycerol.
Membranes from Sf9 cells expressing the ADORA2A, XLGolf, β1, and γ2 subunits were resuspended in the reaction buffer (20 mM HEPES, pH 7.4, 100 mM NaCl, 10 mM MgCl2, 1 mM EDTA, 1 mM DTT) including protease inhibitor. Agonist-induced [^35S]-GTPγS binding assay was performed for 90 min at room temperature in 96 well-microplates with a volume of 200 μl per well, and containing 5 μg of membranes, agonist at a concentration range of 10^−12 to 10^−4 M, 10 μM GDP, and 400 pM [^35S]-GTPγS. Non-specific binding was determined in the presence of 10 μM unlabeled GTPαS. Incubations were terminated by rapid filtration of the samples throught glass fiber filters (Whatman GF/C). […] Radioactivity was measured using a Packard Bioscience Top Count NXT Microplate Scintillation microplate reader. […]

T1 sequence (P29274 whole entry): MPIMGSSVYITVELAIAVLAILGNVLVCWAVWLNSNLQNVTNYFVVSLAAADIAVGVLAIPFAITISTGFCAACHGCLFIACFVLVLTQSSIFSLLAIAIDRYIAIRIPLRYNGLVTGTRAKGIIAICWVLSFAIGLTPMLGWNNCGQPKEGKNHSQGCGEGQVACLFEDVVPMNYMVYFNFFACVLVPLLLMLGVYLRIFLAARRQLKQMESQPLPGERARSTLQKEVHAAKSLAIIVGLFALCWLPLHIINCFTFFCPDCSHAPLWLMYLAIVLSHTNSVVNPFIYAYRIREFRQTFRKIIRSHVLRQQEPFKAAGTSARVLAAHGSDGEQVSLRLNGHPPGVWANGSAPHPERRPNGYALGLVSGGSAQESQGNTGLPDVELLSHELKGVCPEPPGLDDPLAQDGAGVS

Structure (SMILES): Nc1nc(Nc2ccccc2)nc2c1ncn2[C@@H]1O[C@H](CO)[C@@H](O)[C@H]1O [CV1808]
- potencies of ADA-resistant adenosine receptor ligands: comparable
